Holding throughout (assay): NCI-60 cell line screen, 48 h
Assay [1] deals with A549 NSCLC.
Assay [2] deals with MALME-3M melanoma.
Assay [3] concerns OVCAR-3 ovarian.
Assay [4] concerns A498 renal.

Each structure is given as a SMILES string.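 Method: 48-hour compound exposure of cells in 96-well plates, five concentrations, linear interpolation of endpoints. At the GI50, growth is halved. TGI denotes the concentration required for complete inhibition of growth.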 Some results are limits rather than exact numbers.

With `Clc1ccc(Cc2nc3ccccc3nc2-c2cccc(Br)c2)cc1`, the values for the TGI in assay [1], in assay [2] and in assay [3] were 35.6 µM, 22.5 µM and 5.76 µM, respectively.
Consider `N/N=C1/C2CN3CCN(C2)CC1(c1ccc([N+](=O)[O-])cc1)C3`, for which the TGI in assay [4], in assay [2] and in assay [3] was > 100 µM throughout.
Take `Clc1ccc(N2N=C(c3cccc(Nc4ccncc4)c3)CC2c2ccc3c(c2)OCO3)cc1` (configuration not stated): in assay [3], the GI50 was 1.63 µM and the TGI came to 3.07 µM.
Regarding `CC[N+](C)(CC)CCC(O)(c1ccccc1)c1ccccc1`, the TGI in assay [4], in assay [1], in assay [2] and in assay [3] was > 100 µM in each case.
For the molecule `C/C(=N\NC(=S)N1CCCCC1)c1cccc(C)n1`, the TGI was 0.607 µM in assay [4], 10.6 µM in assay [1], 2.13 µM in assay [2] and 12.1 µM in assay [3].
Regarding `N#Cc1nc(CCCCCN2C(=O)c3ccccc3C2=O)oc1N`, the TGI in assay [1], in assay [2] and in assay [3] was > 100 µM in each case.
`CCOC(=O)c1c(CN2CCNCC2)nc2ccccc2c1-c1ccccc1`: the TGI is 28.3 µM in assay [4], 33.1 µM in assay [1], 22 µM in assay [2] and 31.8 µM in assay [3].
Take `CCOC(=O)C1(C(=O)OCC)[C@H](c2ccccc2)C2=NO[C@@H]3CCC[C@H]1[C@H]23`: the TGI was > 100 µM in assay [1], > 100 µM in assay [2] and 96.8 µM in assay [3].
Regarding `CCNc1ccc2c(c1)Cc1ccccc1-2`, the TGI in assay [4], in assay [1], in assay [2] and in assay [3] was > 100 µM in each case.
Turning to `Nc1ncnc2c1ncn2C1CCC(COS(N)(=O)=O)C1` (configuration not stated), the TGI in assay [1], in assay [2] and in assay [3] was > 100 µM in each case.
For the molecule `COc1cc2c(cc1OCCCC(=O)Nc1cc(C(=O)Nc3cc(C(=O)Nc4cc(C(=O)NCCCN(C)C)n(C)n4)n(C)n3)n(C)n1)N=CC1CCCN1C2=O` (configuration not stated), the TGI in assay [4] is 42.8 µM; in assay [1] it was > 100 µM; in assay [2], 25.5 µM; in assay [3] it was > 100 µM.
For the molecule `Cc1ccc(C(=O)N/N=C(\N=Nc2cccc(Cl)c2)c2ccc(N(CCC#N)CCC#N)cc2C)cc1`, the TGI in assay [4], in assay [1], in assay [2] and in assay [3] was > 100 µM throughout.
As to `CN(C)CCNC(=O)c1ccc(NCCCN(C)CCCNc2ccc3c(=O)n(CCN(C)C)c(=O)n4c5ccccc5c(=O)c2c34)c2c(=O)c3ccccc3[nH]c12`, the TGI worked out at 0.415 µM in assay [4], 0.164 µM in assay [1], 0.453 µM in assay [2] and 0.23 µM in assay [3].
As for `Cc1ccc(S(=O)(=O)NNC(=O)c2cc(C)ccc2NC(=O)C23CC4CC(CC(C4)C2)C3)cc1`, the values for the TGI in assay [1], in assay [2] and in assay [3] were > 100 µM, 80.4 µM and > 100 µM, respectively.
Take `CCOC(=O)C(NC(=O)N(C1=NCC(C)S1)C1CCCCC1)(OC)C(F)(F)F` (configuration not stated): the TGI in assay [4] is 44.4 µM; in assay [1] it was > 100 µM; in assay [2], > 100 µM; in assay [3], 71.1 µM.
For `N=c1oc2ccc3ccccc3c2cc1C(N)=O`, the TGI in assay [4], in assay [1] and in assay [3] was > 100 µM each time.
As to `CN1CCN(c2c(Cl)cc(Cl)c3[nH]c4ccccc4c(=O)c23)CC1`, the TGI worked out at 5.44 µM in assay [4], 32.9 µM in assay [1], 6.67 µM in assay [2] and 33.5 µM in assay [3].
With `Cc1ccc(C2=NOC(=O)[C@@H]3CCCC[C@@H]23)cc1`, the TGI in assay [4], in assay [2] and in assay [3] was > 100 µM throughout.
Take `COc1cc2nc(-c3ccc4ccccc4c3)[nH]c(=O)c2cc1OC`: the TGI in assay [4], in assay [1], in assay [2] and in assay [3] was > 100 µM in each case.
With `Cc1cccc2c1[nH]c1[nH]c(=O)[nH]c(=O)c12`, the TGI in assay [4], in assay [1], in assay [2] and in assay [3] was > 100 µM in each case.
Consider `COc1ccc2c(c1)C(N)=C(c1ccccc1)C2=O`, for which the TGI in assay [4], in assay [1], in assay [2] and in assay [3] was > 100 µM in each case.
Turning to `N#CC(C#N)=C1C(C#N)=C(N)NC12OCCO2`, the TGI in assay [4], in assay [1] and in assay [2] was > 100 µM throughout.
Regarding `CC1OC2=N[C@@H]1C(=O)N[C@@H](C(C)C)C1=N[C@H](C(=O)N[C@@H](C(C)C)C3=N[C@H](C(=O)N[C@@H](C(C)C)C4=N[C@H](C(=O)N[C@H]2C(C)C)C(C)O4)C(C)O3)C(C)O1` (some centres not stated), the TGI in assay [4], in assay [2] and in assay [3] was > 10 µM each time.
On to `COc1cc(/C=C/C(=O)c2c(=O)o[nH][n+]2-c2ccccc2)ccc1[O-]`, for which the TGI in assay [4] stood at 20.2 µM; in assay [1], 14.8 µM; in assay [2] it was 12 µM; in assay [3], 4.82 µM.
In the case of `O=C(NCc1cccc(C(F)(F)F)c1)c1cc2sccc2nc1C(F)(F)F`, the TGI in assay [1], in assay [2] and in assay [3] was > 100 µM throughout.
For `c1ccc(CCNCc2ccco2)nc1`, the TGI in assay [4], in assay [1], in assay [2] and in assay [3] was > 100 µM in each case.
For `COc1ccc(N(C)C(=O)N(C)c2ccc([N+](=O)[O-])cc2)cc1`, the TGI in assay [4] was > 100 µM; in assay [1], > 100 µM; in assay [2], > 100 µM; in assay [3], 84.2 µM.
Turning to `Cc1cc(C)c(P2C(=C(O[Si](C(C)C)(C(C)C)C(C)C)C(C)(C)C)C2(c2ccccc2)c2ccccc2)c(C)c1` (configuration not stated), the TGI in assay [4], in assay [1] and in assay [3] was > 100 µM each time.
Regarding `O=C1C=CC(=O)C(CNc2ccc(C(=O)OC34CC5CC(CC(C5)C3)C4)cc2)=C1`, the TGI was determined as 28 µM in assay [4], 56.9 µM in assay [1], 21.4 µM in assay [2] and 14.4 µM in assay [3].

The values are drawn from PubChem BioAssay (NCI).
